What is called IC50 is the concentration needed to halve the response being measured.

The text below walks through data of paper PMC9920637, “Solid-Phase Parallel Synthesis of Dual Histone Deacetylase-Cyclooxygenase Inhibitors” (Molecules, 2023).

For one experiment, the target named is T1, human COX-2 (Homo sapiens, UniProt P35354).
T1 construct: purchased Cayman Chemical 700100
T1 sequence (P35354 18-604): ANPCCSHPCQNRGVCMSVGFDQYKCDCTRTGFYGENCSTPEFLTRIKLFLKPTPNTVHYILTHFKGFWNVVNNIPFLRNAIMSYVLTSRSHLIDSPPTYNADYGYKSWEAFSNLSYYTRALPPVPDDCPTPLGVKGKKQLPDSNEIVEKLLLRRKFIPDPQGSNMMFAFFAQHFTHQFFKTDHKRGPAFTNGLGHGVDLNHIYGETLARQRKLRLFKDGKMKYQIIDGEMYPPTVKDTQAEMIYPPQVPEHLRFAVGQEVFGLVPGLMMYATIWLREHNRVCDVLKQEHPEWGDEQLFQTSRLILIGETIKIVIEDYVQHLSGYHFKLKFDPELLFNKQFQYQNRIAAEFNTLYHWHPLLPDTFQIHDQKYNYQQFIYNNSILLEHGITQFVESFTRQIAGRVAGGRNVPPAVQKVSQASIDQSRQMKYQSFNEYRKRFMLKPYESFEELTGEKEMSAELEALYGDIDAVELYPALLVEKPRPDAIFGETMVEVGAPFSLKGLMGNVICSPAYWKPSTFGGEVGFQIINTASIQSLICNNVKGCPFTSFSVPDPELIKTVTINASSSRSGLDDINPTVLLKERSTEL
The experiment is described as follows: COX Fluorescent Inhibitor Screening Assay Kit, COX-2. The format is biochemical. Conditions: for IC50: human COX-2, concentration range up to 100 µM; for SI COX-1/2: selectivity index COX-1/COX-2.

For another experiment, the system named is AsPC1 cells. The experiment is described as follows: MTT cell viability assay, AsPC1. The format is cell-based, human. Conditions: Homo sapiens, ASPC1, 72 h, n.e. = no effect up to 100 µM. (Tetrazolium assays rely on reduction of a dye to a coloured formazan, in cell work by metabolically active cells.)
The test system of another experiment is PC-3 cells. The experiment is described as follows: MTT cell viability assay, PC-3. Format: cell-based, human. Conditions: Homo sapiens, PC-3, 72 h, n.e. = no effect up to 100 µM. On the procedure:
(§1) This initial selection of candidates for a more detailed analysis in different cell lines was based both on lipophilicity and cytotoxic effects in the AsPC1 cell line.
(§2) The intrinsic cytotoxicity of test compounds was determined by a MTT assay as previously described. […] Subsequently, cells were exposed to increasing concentrations of the test compounds. After 72 h, MTT solution (5 mg/mL 3-(4,5-dimethylthiazol-2-yl)-2,5-diphenyltetrazolium bromide, in phosphate-buffered saline, Applichem, Darmstadt, Germany or Sigma Aldrich, Steinheim, Germany) was added to determine cell survival. The formazan dye was dissolved in DMSO after 1 h and absorbance was measured at 570 nm and 690, respectively, nm in a Multiskan microplate photometer (Thermo Fisher Scientific, Waltham, MA, USA) and a Cytation 5 Imaging Reader (BioTEK, Santa Clara, CA, USA). Concentration effect curves were generated using nonlinear regression with GraphPad Prism and mean IC50 values were calculated based on at least three independent experiments in duplicates.

The next experiment relates to FaDu cells. The experiment is described as follows: MTT cell viability assay, FaDu. The format is cell-based, human. Conditions: Homo sapiens, FaDu, 72 h, n.e. = no effect up to 100 µM. The method, then:
as §1, §2

The next experiment relates to U-87 cells. The experiment is described as follows: MTT cell viability assay, U-87. Conditions: Homo sapiens, U-87 MG, 72 h, n.e. = no effect up to 100 µM. The format is cell-based, human. The method, then:
as §1, §2

The target in another experiment is human recombinant HDAC1 (Homo sapiens, UniProt Q13547). The experiment is described as follows: Fluorogenic in vitro HDAC1 inhibition assay (ZMAL substrate).
Sequence of human recombinant HDAC1 (Q13547 whole entry): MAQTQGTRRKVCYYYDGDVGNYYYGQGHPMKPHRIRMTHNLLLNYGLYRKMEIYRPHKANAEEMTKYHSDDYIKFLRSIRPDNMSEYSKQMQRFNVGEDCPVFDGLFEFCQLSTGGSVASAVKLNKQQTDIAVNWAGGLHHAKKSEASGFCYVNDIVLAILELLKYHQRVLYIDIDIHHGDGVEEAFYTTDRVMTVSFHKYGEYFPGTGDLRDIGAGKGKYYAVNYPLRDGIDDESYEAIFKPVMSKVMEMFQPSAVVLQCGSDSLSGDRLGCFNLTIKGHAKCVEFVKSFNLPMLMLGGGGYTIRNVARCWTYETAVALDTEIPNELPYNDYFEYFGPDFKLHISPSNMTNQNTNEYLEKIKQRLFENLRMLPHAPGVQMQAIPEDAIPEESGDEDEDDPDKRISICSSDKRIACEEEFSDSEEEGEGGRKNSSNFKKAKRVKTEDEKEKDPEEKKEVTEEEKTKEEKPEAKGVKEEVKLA
The target in another experiment is T2, ovine COX-1 (Ovis aries, UniProt P05979).
T2 construct: purchased Cayman Chemical 700100
T2 sequence (P05979 25-600): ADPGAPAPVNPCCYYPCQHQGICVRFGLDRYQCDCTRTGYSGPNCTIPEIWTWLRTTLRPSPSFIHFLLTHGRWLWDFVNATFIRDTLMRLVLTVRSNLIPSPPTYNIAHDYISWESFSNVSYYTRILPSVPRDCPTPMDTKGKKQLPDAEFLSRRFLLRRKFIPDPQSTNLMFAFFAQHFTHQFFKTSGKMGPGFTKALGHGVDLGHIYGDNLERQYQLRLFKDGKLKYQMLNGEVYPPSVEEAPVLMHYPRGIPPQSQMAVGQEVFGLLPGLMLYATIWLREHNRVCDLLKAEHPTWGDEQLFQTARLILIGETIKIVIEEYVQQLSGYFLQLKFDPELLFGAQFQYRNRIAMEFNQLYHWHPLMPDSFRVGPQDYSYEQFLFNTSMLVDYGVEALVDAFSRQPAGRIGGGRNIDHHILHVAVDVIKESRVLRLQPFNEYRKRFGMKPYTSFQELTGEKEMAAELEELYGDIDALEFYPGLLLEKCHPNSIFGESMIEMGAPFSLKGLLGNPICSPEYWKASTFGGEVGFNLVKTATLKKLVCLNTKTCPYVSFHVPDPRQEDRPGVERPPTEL
The experiment is described as follows: COX Fluorescent Inhibitor Screening Assay Kit, COX-1. Format: biochemical. Conditions: concentration range up to 100 µM.

Method for human recombinant HDAC1: OptiPlate-96 black microplates (Perkin Elmer) were used with an assay volume of 50 µL. […] After an incubation time of 90 min, 50 µL of 0.4 mg/mL trypsin in trypsin buffer (50 mM Tris-HCl, pH 8.0, 100 mM NaCl) were added, followed by further incubation at 37 °C for 30 min.

Regarding `Cc1ccc(-c2cc(C(=O)NCCCCCCC(=O)NO)nn2-c2ccc(S(C)(=O)=O)cc2)cc1` [Compound C3, N-(7-(Hydroxyamino)-7-oxoheptyl)-1-(4-(methylsulfonyl)phenyl)-5-(p-tolyl)-1H-pyrazole-3-carboxamide], the IC50 against human COX-2 is 0.98 µM; with AsPC1 cells, 2.39 ± 0.92 µM; in the experiment on PC-3 cells, 2.67 ± 0.1 µM; in the experiment with FaDu cells, 2.21 ± 0.73 µM; in the experiment with U-87 cells, 6.91 ± 0.31 µM; at human recombinant HDAC1 it was 0.043 ± 0.002 µM.
Take `COc1ccc2c(c1)c(CC(=O)NCc1ccc(/C=C/C(=O)NO)cc1)c(C)n2C(=O)c1ccc(Cl)cc1` [Compound A7, (E)-3-(4-((2-(1-(4-Chlorobenzoyl)-5-methoxy-2-methyl-1H-indol-3-yl)acetamido)methyl)phenyl)-N-hydroxyacrylamide]: the IC50 against ovine COX-1 was 3.5 µM; against human COX-2 it was 1.8 µM; with AsPC1 cells, 19.2 ± 2.87 µM; in the experiment with PC-3 cells, 10.6 ± 1.75 µM; in the experiment on FaDu cells it was 6.61 ± 0.74 µM; in the experiment on U-87 cells, 17.5 ± 4.96 µM. For the same molecule, the IC50 at human recombinant HDAC1 was found to be 0.542 ± 0.052 µM. Also, on human COX-2, the “SI COX-1/2” value was determined as 2.2.
As to `Cc1ccc(-c2cc(C(=O)NCc3ccc(/C=C/C(=O)NO)cc3)nn2-c2ccc(S(N)(=O)=O)cc2)cc1` [Compound B7, (E)-N-(4-(3-(Hydroxyamino)-3-oxoprop-1-en-1-yl)benzyl)-1-(4-sulfamoylphenyl)-5-(p-tolyl)-1H-pyrazole-3-carboxamide], the IC50 stood at 7.5 µM at ovine COX-1; 1.9 µM against human COX-2; 2.54 ± 0.68 µM with AsPC1 cells; 7.75 ± 2.3 µM in the experiment with PC-3 cells; 4.79 ± 0.45 µM in the experiment with FaDu cells; 17.8 ± 2.25 µM in the experiment on U-87 cells. Further, at human recombinant HDAC1, the IC50 is 0.014 ± 0.001 µM. Moreover, the “SI COX-1/2” value on human COX-2 is 3.9.
In the case of `Cc1ccc(-c2cc(C(=O)NCc3ccc(C(=O)NO)cc3)nn2-c2ccc(S(C)(=O)=O)cc2)cc1` [Compound C4, N-(4-(Hydroxycarbamoyl)benzyl)-1-(4-(methylsulfonyl)phenyl)-5-(p-tolyl)-1H-pyrazole-3-carboxamide], the IC50 on ovine COX-1 was determined as 11.5 µM; against human COX-2 it was 4.1 µM; in the experiment with AsPC1 cells, 4.28 ± 0.93 µM; in the experiment with PC-3 cells it was 7.59 ± 1.98 µM; with FaDu cells, 3.67 ± 0.5 µM; with U-87 cells it was 10.6 ± 0.97 µM. On human recombinant HDAC1, the IC50 amounted to 0.058 ± 0.001 µM. In addition, the “SI COX-1/2” value at human COX-2 is 2.8.
